Laboratory results taken from the PolyMetriX glass transition set.
± gives the standard deviation of the reports.

glass transition temperature [°C]	Compound
229.00	*C(=O)c1ccc(Oc2ccc(-c3ccc(Oc4ccc(C(=O)c5ccc6c(c5)C(=O)N(c5ccc(N7C(=O)c8ccc(*)cc8C7=O)cc5)C6=O)cc4)cc3)cc2)cc1 (repeat unit)
252.20	*c1cc(Oc2c(C)cc(-c3cc(C)c(Oc4cc(N5C(=O)c6ccc(Oc7ccc8c(c7)C(=O)N(*)C8=O)cc6C5=O)cc(C(F)(F)F)c4)c(C)c3)cc2C)cc(C(F)(F)F)c1 (repeat unit)
145.00	*CCOCCOCCOCCOCCOc1ccc(C(=O)Nc2cc(NC(=O)c3ccc(O*)cc3)cc(-c3nc4ccccc4[nH]3)c2)cc1 (repeat unit)
257.00	*C(=O)Nc1ccc(Oc2ccc(Oc3ccc(NC(=O)c4ccc5c(c4)C(=O)N(c4ccc(Oc6ccc(C7(c8ccc(Oc9ccc(N%10C(=O)c%11ccc(*)cc%11C%10=O)cc9)cc8)CC8CC7C7CCCC87)cc6)cc4)C5=O)cc3)cc2)cc1 (repeat unit)
368.00	*C(=O)Nc1ccc(NC(=O)c2ccc3c(c2)C(=O)N(c2ccc(S(=O)(=O)c4ccc(N5C(=O)c6ccc(*)cc6C5=O)cc4)cc2)C3=O)cc1 (repeat unit)
208.00	*c1ccc(Oc2ccc(-c3ccc(Oc4ccc(N5C(=O)c6ccc(Oc7ccccc7Oc7ccc8c(c7)C(=O)N(*)C8=O)cc6C5=O)cc4C(F)(F)F)cc3)cc2)c(C(F)(F)F)c1 (repeat unit)
114.50	*Oc1ccc(Oc2ccc(OC(=O)NC(=O)c3cc(C(=O)NC(*)=O)cc(C(C)(C)C)c3)cc2)cc1 (repeat unit)
203.00	*Nc1cccc(CCc2ccc(NC(=O)c3cccc(C(*)=O)c3)cc2)c1 (repeat unit)
179.00	*C(=O)Nc1ccc(Oc2cccc(Oc3ccc(NC(=O)c4ccc5c(c4)C(=O)N(c4ccc(Sc6ccc(Oc7ccc(Sc8ccc(N9C(=O)c%10ccc(*)cc%10C9=O)cc8)cc7)cc6)cc4)C5=O)cc3)c2)cc1 (repeat unit)
233.00	*Oc1c(C)cc(-c2cc(C)c(Oc3ccc(C(=O)c4ccccc4-c4ccccc4C(=O)c4ccc(*)cc4)cc3)c(C)c2)cc1C (repeat unit)
125.00	*Oc1ccc2cc(OC(=O)c3cccc(Oc4ccc(Oc5cccc(C(*)=O)c5)cc4)c3)ccc2c1 (repeat unit)
236.00	*c1ccc(Oc2ccc(-c3ccc(Oc4ccc(N5C(=O)c6cccc(Oc7ccc(C(C)(C)c8ccc(Oc9cccc%10c9C(=O)N(*)C%10=O)cc8)cc7)c6C5=O)cc4)cc3)cc2)cc1 (repeat unit)
245.00	*c1ccc(Oc2ccc(C(=O)c3ccc(C(=O)c4ccc(Oc5ccc(N6C(=O)c7ccc(-c8ccc9c(c8)C(=O)N(*)C9=O)cc7C6=O)cc5)cc4)cc3)cc2)cc1 (repeat unit)
180.00	*Oc1cc(C(C)(C)c2ccccc2)c(OC(=O)c2cccc(C(*)=O)c2)cc1C(C)(C)c1ccccc1 (repeat unit)
34.00	*CC(*)(C)C(=O)OCCCCCCCCOc1ccc2cc(C(=O)Oc3ccccc3)ccc2c1 (repeat unit)
253.00	*C(=O)c1ccc2c(c1)/C(=N\c1ccc(Oc3cccc(/N=C4/OC(=O)c5ccc(*)cc54)c3)cc1)OC2=O (repeat unit)

glass transition temperature [°C]	Compound
141.00	*CCCCCCN1C(=O)c2ccc(-c3ccc(-c4ccc5c(c4)C(=O)N(*)C5=O)cc3)cc2C1=O (repeat unit)
206.00	*c1ccc(Oc2ccc(Sc3ccc(Oc4ccc(N5C(=O)c6ccc(Oc7ccc(-c8ccc(Oc9ccc%10c(c9)C(=O)N(*)C%10=O)cc8)cc7)cc6C5=O)cc4)cc3)cc2)cc1 (repeat unit)
229.00	*Oc1ccc(C(c2ccccc2)(c2ccccc2)c2ccc(OC(=O)c3cccc(C(*)=O)c3)cc2)cc1 (repeat unit)
243.00	*c1ccc(N(c2ccc(C#N)cc2)c2ccc(N3C(=O)c4ccc(Oc5ccc(C6(c7ccc(Oc8ccc9c(c8)C(=O)N(*)C9=O)cc7)CCCCC6)cc5)cc4C3=O)cc2)cc1 (repeat unit)
310.00	*c1ccc2oc(-c3ccc(C(c4ccccc4)(c4ccc(-c5nc6cc(C(*)(C(F)(F)F)C(F)(F)F)ccc6o5)cc4)C(F)(F)F)cc3)nc2c1 (repeat unit)
276.50	*c1ccc2c(c1)C(=O)N(c1ccc(Oc3ccc(S(=O)(=O)c4ccc(Oc5ccc(N6C(=O)c7ccc(C(*)(C(F)(F)F)C(F)(F)F)cc7C6=O)cc5)cc4)cc3)cc1)C2=O (repeat unit)
276.00	*C(=O)c1ccc2c(c1)C(=O)N(c1ccc(C(=O)c3cccc(C(=O)c4ccc(N5C(=O)c6ccc(*)cc6C5=O)cc4)c3)cc1)C2=O (repeat unit)
285.2 ± 2.5	*c1cccc(Oc2cccc(-n3c(=O)c4cc5c(=O)n(*)c(=O)c5cc4c3=O)c2)c1 (repeat unit)
225.00	*c1ccc(Oc2ccc(C(C)(C)c3ccc(Oc4ccc(N5C(=O)C6CCC(C7CCC8C(=O)N(*)C(=O)C8C7)CC6C5=O)cc4)cc3)cc2)cc1 (repeat unit)
245.00	*C(=O)c1ccc2c(c1)C(=O)N(c1ccc(Oc3cccc(Oc4ccc(N5C(=O)c6ccc(*)cc6C5=O)cc4)c3C#N)cc1)C2=O (repeat unit)
249.47	*c1ccc(Oc2ccc(C(C)(C)c3cccc(C(C)(C)c4ccc(Oc5ccc(-n6c(=O)c7cc8c(=O)n(*)c(=O)c8cc7c6=O)cc5)cc4)c3)cc2)cc1 (repeat unit)
118.00	*CCOCCOCCN1C(=O)c2ccc(C(=O)Oc3ccc(C(C)(C)c4ccc(OC(=O)c5ccc6c(c5)C(=O)N(*)C6=O)cc4)cc3)cc2C1=O (repeat unit)
150.00	*c1ccc(/C=N/c2cccc(/N=C/c3ccc(-c4ccc(*)s4)cc3)c2)cc1 (repeat unit)
268.50	*c1ccc(Oc2ccc(-c3ccc4nc(Oc5cc(-c6ccccc6)c6cc(*)ccc6n5)cc(-c5ccccc5)c4c3)cc2)cc1 (repeat unit)
237.00	*Oc1ccc(C2(c3ccc(Oc4ccc(-c5ccc(-c6ccc(*)c(C(F)(F)F)c6)cc5)cc4C(F)(F)F)cc3)c3ccccc3-c3ccccc32)cc1 (repeat unit)

More lines, now with the values behind:

Compound	glass transition temperature [°C]
*C(=O)c1ccc2c(c1)C(=O)N(c1ccc(-c3c(-c4ccc(-c5ccccc5)cc4)cc(-c4ccc(OCCCCCCCCCCOc5ccc(-c6cc(-c7ccc(-c8ccccc8)cc7)c(-c7ccc(N8C(=O)c9ccc(*)cc9C8=O)cc7)c(-c7ccc(-c8ccccc8)cc7)c6)cc5)cc4)cc3-c3ccc(-c4ccccc4)cc3)cc1)C2=O (repeat unit)	103.50
*CC(*)(C)C(=O)OCc1cccc(Cl)c1 (repeat unit)	18.2
*Oc1ccc(CC(NC(=O)CCc2ccc(OC(=O)CCC(*)=O)cc2)C(=O)OCC)cc1 (repeat unit)	78.00
*Oc1c([2H])c([2H])c(S(=O)(=O)c2c([2H])c([2H])c(Oc3c([2H])c([2H])c(C(c4c([2H])c([2H])c(*)c([2H])c4[2H])(C([2H])([2H])[2H])C([2H])([2H])[2H])c([2H])c3[2H])c([2H])c2[2H])c([2H])c1[2H] (repeat unit)	175.00
*/C=C/C1CC(*)C2C(=O)N(c3ccc(C)cc3)C(=O)C12 (repeat unit)	222.00
*/C(CCCCCC)=C(/*)c1ccccc1 (repeat unit)	200.00
*CC(*)C(=O)NC(C)C (repeat unit) [Poly(N-isopropyl acrylamide)]	85.2 ± 56
*O[Si](*)(C)CCCOCCOCCOC (repeat unit)	-90.10
*Cc1cc2cc(C(=O)Nc3ccc(S(=O)(=O)c4ccc(NC(=O)c5cc6cc(*)c(OC(=O)COc7ccc8ccc(=O)oc8c7)cc6oc5=O)cc4)cc3)c(=O)oc2cc1OC(=O)COc1ccc2ccc(=O)oc2c1 (repeat unit)	233.00
*CC(C)(CO)CO* (repeat unit)	62.00
*Oc1ccc(OC(=O)c2cc(OCCCCCCCCCOCC3CCCN3c3ccc([N+](=O)[O-])cc3)c(C(*)=O)cc2OCCCCCCCCCOCC2CCCN2c2ccc([N+](=O)[O-])cc2)cc1 (repeat unit)	34.00
*Oc1ccc(S(=O)(=O)c2ccc(Oc3ccc(C(c4ccc(*)c([Si](C)(C)C)c4)(C(F)(F)F)C(F)(F)F)cc3[Si](C)(C)C)cc2[Si](C)(C)C)c([Si](C)(C)C)c1 (repeat unit)	148.90
*O[Si](*)(C)CCCCC(=O)OCCCCCCCCCCC(F)(F)C(F)(F)C(F)(F)C(F)(F)C(F)(F)C(F)(F)C(F)(F)C(F)(F)F (repeat unit)	-78.00
*CCSSCCO* (repeat unit)	-53.00
*CC(C)(C)CS(=O)(=O)CC(C)(C)COC(=O)O* (repeat unit)	50.00
*Nc1ccc(NC(=O)Cc2cc(C)c(CC(*)=O)cc2C)cc1 (repeat unit)	175.00
*Oc1ccc(Oc2ccc(P(C)(=O)c3ccc(*)cc3)cc2)cc1 (repeat unit)	213.00
*OC(C)CCOC(=O)c1ccc(-c2ccc(C(*)=O)cc2)cc1 (repeat unit)	92.50
*c1cc(SCCCCCC)c(*)s1 (repeat unit)	32.00
*NC1CCC(CC2CCC(NC(=O)CCCCC(*)=O)CC2)CC1 (repeat unit)	185.00
*O[Si](C)(C=C)O[Si](C)(C)c1ccc([Si](*)(C)C)cc1 (repeat unit)	-63.00
*CCOCCOc1ccc(/C=C(\C)c2ccc(O*)cc2)cc1 (repeat unit)	39.00
*CCOP(=O)(/N=N/c1ccc(-c2ccc(/N=N/P(=O)(O*)OCC)cc2)cc1)OCC (repeat unit)	43.00
*CCCCCCOC(=O)C(Cc1ccccc1)NC(=O)/C=C/C(=O)NC(Cc1ccccc1)C(=O)O* (repeat unit)	92.00
*/C=N/c1ccc(C(=O)OCCCCOCCCCOCCCCOC(=O)c2ccc(/N=C/c3ccc(*)s3)cc2)cc1 (repeat unit)	25.00
